The subject of test [1] is T1, rBPI.
T1 construct: the human BPI (aa 32-487) and a C-terminal FLAG Tag; HA signal peptide (N); made in house; host or cells: HEK293T
Nature of the test: BPI microtiter binding assay, LPS biotin-coated plates. Details: species or system human. To be noted: ligand pre-incubated with 20 nM rBPI. On the procedure: BPI binding assays were performed using a protocol published for LBP ([9]) with some modifications. Streptavidin-coated 96-well plates (Nunc^TM Immobilizer^TM Streptavidin F96 clear, Thermo Fisher Scientific, Waltham, MA, USA) were coated with LPS biotin (2 μg/ml) or Pam2CSK4 biotin (1 μg/ml) in PBS overnight at 23°C with gentle agitation. After washing with assay buffer (150 mM NaCl, 50 mM HEPES, Sigma Aldrich, Taufkirchen, Germany) containing 0.01% Casein, plates were blocked with 10 g/l BSA (Sigma Aldrich, Taufkirchen, Germany) at 37°C and washed again. Thereafter, ligands were preincubated with 20 nM BPI in assay buffer containing 1 g/l BSA for 30 min and loaded onto the plates. In case of bacterial lysates, 0.05% Tween 20 was added for preincubation. After incubation for 1 h at 37°C, three washing steps were performed. Bound BPI was detected by murine anti-human BPI monoclonal antibody (Cat.-No. HM2042, Hycult Biotech, Uden, Netherlands) and HRP-conjugated rabbit anti-mouse IgG (Cat.-No. 315-035-048, Dianova, Hamburg, Germany). TMB (BD OptEIA^TM TMB Substrate Reagent Set, BD Biosciences, Heidelberg, Germany) was used as a substrate for peroxidase. After addition of 1 N HCl, absorbance was measured at 450 nm. Technical replicates were performed at least two times using exactly the same reagents and are not indicated for the BPI microtiter binding assay. Biological replicates shown here are experiments independently performed by using separately formulated solutions of the reagents.

For test [2], the system named is T1, rBPI. Nature of the test: NanoDSF thermal stability of rBPI with ligand. The class given is binding, human. Particulars: 5 μM rBPI, 30 μM ligand, PBS pH 7.4. How it is done: For thermal unfolding experiments, rBPI protein was diluted to a final concentration of 5 μM in PBS pH 7.4, either containing a ligand at 30 μM concentration [(R)-Pam3CSK4, (R)-FSL-1 or LPS EC] or in the absence of a ligand. For each condition, 10 μl of sample per capillary were prepared. The samples were loaded into UV capillaries and experiments were carried out using the Prometheus NT.48 (NanoTemper Technologies, Munich, Germany). The temperature gradient was set to an increase of 1°C/min with a range from 20 to 90°C. Protein unfolding was measured by detecting the temperature-dependent change in tryptophan fluorescence at emission wavelength of 350 nm (Figure 3E, upper panel). Melting temperature (Tm) was determined by detecting the maximum of the first derivative of the fluorescence wavelength 350 nm. For this purpose, an 8th order polynomial fit was calculated for the transition region (Figure 3E, lower panel). Next, the first derivative of the fit was formed and the peak position (at Tm) was determined. Finally, Tm shift (Tm protein alone — Tm protein with ligand) upon addition of ligand to the protein (in°C) was calculated. Technical and biological replicates were defined as described for BPI microtiter binding assays.
(In general: In DSF a fluorescence change marks the thermal transition of the protein.)

The target of test [3] is T2, BPIN(A) (Homo sapiens, UniProt P17213).
T2 construct: Bactericidal/permeability-increasing protein (BPI) extracted from neutrophils; purchased Athens Research and Technology; host or cells: neutrophils
T2 sequence (P17213 32-487): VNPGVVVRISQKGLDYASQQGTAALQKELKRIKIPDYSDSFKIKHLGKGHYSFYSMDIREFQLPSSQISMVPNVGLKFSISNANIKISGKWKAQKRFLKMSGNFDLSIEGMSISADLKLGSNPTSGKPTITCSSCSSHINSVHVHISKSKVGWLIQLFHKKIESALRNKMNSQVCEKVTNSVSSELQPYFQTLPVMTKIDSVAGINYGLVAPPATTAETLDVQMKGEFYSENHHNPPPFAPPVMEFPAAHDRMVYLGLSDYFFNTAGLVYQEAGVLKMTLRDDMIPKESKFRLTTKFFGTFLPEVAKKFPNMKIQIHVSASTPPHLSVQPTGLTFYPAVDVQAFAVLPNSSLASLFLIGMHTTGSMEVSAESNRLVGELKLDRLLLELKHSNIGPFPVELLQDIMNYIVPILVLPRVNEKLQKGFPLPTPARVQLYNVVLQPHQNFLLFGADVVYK
The test is described as follows: MicroScale Thermophoresis (MST) binding assay with neutrophil BPI. Particulars: 25°C. How it is done: BPIN(A) and rBPI were labeled with NT647 in PBS pH 7.4 (Monolith NT™ Protein Labeling Kit RED—NHS, NanoTemper Technologies, Munich, Germany). Concentration of labeled protein was determined using the NanoDrop (ThermoScientific, Wilmington, NC, USA) and Bradford assay (Promega, Mannheim, Germany). MicroScale Thermophoresis (MST) binding experiments were carried out with 5 nM labeled protein in binding buffer (10 mM HEPES pH 7.4, 150 mM NaCl, 0.1% Tween) with 0.05–1,679 nM of LPS EC or 0.196–6,436 nM of Pam3CSK4 or 0.61–20,000 nM of LTA SAΔlgt and LTA SPΔlgt or of >0.61–20,000 nM WTA SPΔlgt at 20–40% MST power, 20% LED power in premium capillaries on a Monolith NT.115 pico device at 25°C (NanoTemper Technologies, Munich, Germany). For MST binding assays based on Pam3CSK4 Fluorescein, 20 nM of the fluorescent molecule in binding buffer (10 mM HEPES pH 7.4, 150 mM NaCl, 0.1% Tween) was supplied with 0.018–600 nM BPIN(A) and measured at 40% MST power, 10% LED power in premium capillaries on a Monolith NT.115 pico device at 25°C (NanoTemper Technologies, Munich, Germany).
MST timetraces were recorded and the temperature jump or, respectively, thermophoresis was analyzed. The recorded fluorescence was plotted against the ligand concentration and curve fitting was performed with KaleidaGraph 4.5 using the dissocation constant (KD) fit formula derived from the law of mass action. […]

Test [4] concerns TLR2. Set-up: method as in PMID 15193414. Particulars: cited from earlier work.

pKd: −log10 of the molar value. Ends that are not written are not given here. * marks the point of attachment. Palmitoyl = CCCCCCCCCCCCCCCC(=O)*

Regarding `CCCCCCCCCCCCCCCC(=O)OCC(CO)OC(=O)CCCCCCCCCCCCCCC` (stereo not shown) [DAG, Diacyl-glycerol 16:0], the “inhibition of binding of rBPI to LPS biotin-coated wells” value (from here on “inhibition of binding of rBPI”) in test [1] is reported as “no inhibitory binding”.
Turning to “(R)-Pam2CSK4: di-acylated lipopeptide; acyl-chain deleted at the amino-terminal cysteine of the residual peptide (CSKKKK; di-acylated: diacyl-thioglycerol motif on the cysteine; no acyl-chain at the amino-terminal cysteine of the residual peptide)”, the “inhibition of binding of rBPI” value in test [1] was “lower inhibitory potential”. For the same compound, the “change in melting temperature (Tm) of rBPI” value in test [2] is “decrease in Tm”.
One may read the pKd as the negative decadic logarithm of the Kd, by convention in mol/L. A low value points to a large Kd. The compound “Pam3CSK4 Fluorescein: Pam3CSK4, covalently labeled with fluorescein (CSKKKK)” had a pKd in test [3] (20 nM Pam3CSK4 Fluorescein incubated with increasing concentrations of unlabeled BPIN(A)) of 7.69.
Turning to “Pam3CSK4: tri-acylated lipopeptide; racemate of (R)-Pam3CSK4 and (S)-Pam3CSK4 (Palmitoyl-CSKKKK; not fully specified (residue 1); also: racemate of (R) and (S) forms at the glycerol centre)”, the pKd in test [3] (BPIN(A) NT647 (5 nM) incubated with increasing concentrations of ligand) is 7.18. In test [1], the “inhibition of binding of rBPI” value was “inhibited binding of rBPI to LPS in a dose-dependent manner”.
“Pam 2^* CSK4: di-acylated lipopeptide; acyl-chain deleted at the O-2-position of the thioglycerol core (CSKKKK; also: di-acylated lipopeptide, acyl chain deleted at O-2 of thioglycerol core)”: the “inhibition of binding of rBPI” value in test [1] is “lower inhibitory potential”. The TLR2-stimulatory potential result in test [4] is on record as “lack TLR2-stimulatory potential”.
“PamCSK4: mono-acylated lipopeptide; glycerol-core with two fatty acids deleted, peptide with only one fatty acid (Palmitoyl-CSKKKK)”: the “inhibition of binding of rBPI” value in test [1] was “not enough to completely block the inhibitory potential”. Moreover, the TLR2-stimulatory potential entry in test [4] is listed as “lack TLR2-stimulatory potential”.

Source of the values: paper PMC6293271, “Bactericidal/Permeability-Increasing Protein Is an Enhancer of Bacterial Lipoprotein Recognition” (Frontiers in Immunology, 2018).
